9 compounds from patent publication US6150355A, “Phenylpiperidine derivative” (Kyowa Hakko Kogyo Co., Ltd., priority 1995, dated 2000) can be followed below.

Structures are written as SMILES.

One data set concerns male mice. Description: Evaluation Test of Analgesic Activity (acetic acid intraperitoneally, number of risings). It counts as in vivo. Conditions: Mus musculus, po, 10 mg/kg orally, after 1 hour 0.7% acetic acid i.p. 0.1 ml per 10 g, number of risings for 5 minutes, 10 minutes after, vs control, read-out: Inhibition Rate. How it is done: Evaluation Test of Analgesic Activity
Test compounds (10 mg/kg) were orally administered to groups of male mice, each group consisting of 4 to 12 mice, and after 1 hour, the mice were administered intraperitoneally with a 0.7% acetic acid aqueous solution in a dose of 0.1 ml per weight of 10 g. Then, the number of the risings manifested for 5 minutes 10 minutes after the administration was compared with a control group to calculate inhibition rate.

A further data set has as its system ddy male mice. Description: Acute Toxicity Test (minimum lethal dose). It counts as in vivo. Conditions: intraperitoneal, ddy male mice 20±1 g, mortality seven days after administration. An excerpt: Test compounds were intraperitoneally administered to groups of ddy male mice weighing 20±1 g.

Consider `Cc1ccc2c(c1)C(N1CCC(O)(c3ccccc3)CC1)c1cccnc1CO2` (centres unmarked) [Compound 27, 5-(4-Hydroxy-4-phenylpiperidine-1-yl)-7-methyl-5,11-dihydrobenzo[3,4-b] oxepinopyridine], for which the inhibition in vivo at 10 mg/kg in the data set with male mice turned out to be 100%. As for `OCc1ccc2c(c1)C(N1CCC(O)(c3cccc(C(F)(F)F)c3)CC1)c1ccccc1CO2` (centres unmarked) [Compound 24, 11-[4-Hydroxy-4-(3-trifluoromethylphenyl)piperidine-1-yl]-2-hydroxymethyl-6,11-dihydrodibenzo[b,e] oxepine], in the data set with ddy male mice, the “minimum lethal dose (MLD)” value is given as greater than 100 mg/kg. Also, the inhibition in vivo at 10 mg/kg in the data set with male mice is 100%. Take `CCc1ccc2c(c1)C(N1CCC(O)(c3ccccc3)CC1)c1ccccc1CO2` (centres unmarked) [Compound 8, 2-Ethyl-11-(4-hydroxy-4-phenylpiperidine-1-yl)-6,11-dihydrodibenzo[b,e] oxepine]: in the data set on ddy male mice, the “minimum lethal dose (MLD)” value is greater than 100 mg/kg. Further, the inhibition in vivo at 10 mg/kg in the data set on male mice was 94%. `Cc1ccc2c(c1)C(N1CCC(O)(c3ccc(Cl)cc3)CC1)c1ccccc1CO2` (centres unmarked) [Compound 5, 11-[4-(4-Chlorophenyl)-4-hydroxypiperidine-1-yl]-2-methyl-6,11-dihydrodibenzo[b,e] oxepine]: the “minimum lethal dose (MLD)” value in the data set with ddy male mice is listed as greater than 100 mg/kg. Moreover, the inhibition in vivo at 10 mg/kg in the data set with male mice came out at 72%. On to `Cc1cccc(C2(O)CCN(C3c4ccccc4COc4ccc(C)cc43)CC2)c1` (centres unmarked) [Compound 3, 11-[4-Hydroxy-4-(3-methylphenyl)piperidine-1-yl]-2-methyl-6,11-dihydrodibenzo[b,e] oxepine], for which the “minimum lethal dose (MLD)” value with ddy male mice is greater than 100 mg/kg. Besides, the inhibition in vivo at 10 mg/kg in the data set on male mice came out at 90%.

In the case of `Cc1ccc2c(c1)C(N1CCC(O)(c3ccccc3)CC1)c1ccccc1CO2` (centres unmarked) [Compound 2, 11-(4-Hydroxy-4-phenylpiperidine-1-yl)-2-methyl-6,11-dihydrodibenzo[b,e] oxepine], the “minimum lethal dose (MLD)” value with ddy male mice is recorded as greater than 100 mg/kg. Besides, the inhibition in vivo at 10 mg/kg in the data set with male mice was determined as 83%.

As to `CC(O)c1ccc2c(c1)C(N1CCC(O)(c3ccccc3)CC1)c1ccccc1CO2` (centres unmarked) [Compound 22, 11-(4-Hydroxy-40phenylpiperidine-1-yl)-2-(1-hydroxyethyl)-6,11-dihydrodibenzo[b,e] oxepine], the “minimum lethal dose (MLD)” value in the data set on ddy male mice is greater than 100 mg/kg. Further, the inhibition in vivo at 10 mg/kg with male mice was determined as 100%. As for `Cc1ccc2c(c1)C(N1CCC(O)(c3cccc(C(F)(F)F)c3)CC1)c1ccccc1CO2` (centres unmarked) [Compound 4, 11-[4-Hydroxy-4-(3-trifluoromethylphenyl)piperidine-1-yl]-2-methyl-6,11-dihydrodibenzo[b,e] oxepine], the “minimum lethal dose (MLD)” value in the data set on ddy male mice is reported as greater than 100 mg/kg. Further, the inhibition in vivo at 10 mg/kg in the data set on male mice worked out at 96%. The like results for `OCc1ccc2c(c1)C(N1CCC(O)(c3ccccc3)CC1)c1ccccc1CO2` (centres unmarked) [Compound 19, 11-(4-Hydroxy-4-phenylpiperidine-1-yl)-2-hydroxymethyl-6,11-dihydrodibenzo[b,e] oxepine] were, in that order, greater than 100 mg/kg and 76%.
